The record followed here is ChEMBL document CHEMBL4732022, “Generation of reactive oxygen species is the primary mode of action and cause of survivin suppression by sepantronium bromide (YM155)” (RSC Med Chem, 2021).

Data set [1] has as its system MDA-MB-231. Nature of the data set: Downregulation of survivin protein expression in human MDA-MB-231 cells at 1 mM incubated for 72 hrs by Western blot analysis. The class given is functional, cell-based.
In data set [2] the test system is MCF-10A. The experiment in a line: Cytotoxicity against human MCF-10A cells at 200 uM. It counts as cell-based.
Data set [3] addresses Baculoviral IAP repeat-containing protein 5 (Homo sapiens) (UniProt O15392). Nature of the data set: Inhibition of survivin in human MDA-MB-231 cells assessed as reduction in survivin mRNA expression measured after 72 hrs by qPCR analysis. The class given is cell-based. For orientation: Real-time PCR tracks product formation cycle by cycle.
Data set [4] has the same target. The experiment in a line: Inhibition of survivin in human MDA-MB-453 cells assessed as reduction in survivin mRNA expression measured after 72 hrs by qPCR analysis. The class given is cell-based.
The subject of data set [5] is MDA-MB-231. Nature of the data set: Induction of ROS generation in human MDA-MB-231 cells assessed as increase in ROS level at 1 mM incubated for 12 hrs by […] based assay. It counts as functional, cell-based.
Data set [6] deals with Baculoviral IAP repeat-containing protein 5 (Homo sapiens) (UniProt O15392). Nature of the data set: Inhibition of survivin in human BT-20 cells assessed as reduction in survivin mRNA expression measured after 72 hrs by qPCR analysis. It counts as cell-based.
Data set [7] has as its system MDA-MB-231. The experiment in a line: Downregulation of survivin protein expression in human MDA-MB-231 cells at 20 uM incubated for 72 hrs by Western blot analysis. The class given is functional, cell-based. A general note: In western blotting, separated proteins are transferred to a membrane and probed.
Data set [8] deals with MDA-MB-231. Nature of the data set: Induction of ROS generation in human MDA-MB-231 cells assessed as increase in ROS level at 20 uM incubated for 12 hrs by […] based assay. It counts as functional, cell-based.

Active and inactive are the calls of the source. No cut-off for these calls is given here.

Sequence of Baculoviral IAP repeat-containing protein 5 (Homo sapiens) (O15392 whole entry): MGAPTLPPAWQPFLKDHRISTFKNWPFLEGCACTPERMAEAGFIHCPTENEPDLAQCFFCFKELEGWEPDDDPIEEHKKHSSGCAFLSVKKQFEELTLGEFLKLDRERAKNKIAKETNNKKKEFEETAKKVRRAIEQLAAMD

On to `CCCCS(=N)(=O)CCC(N)C(=O)O` (stereo unspecified) [BUTHIONINE SULFOXIMINE], for which the result in data set [1] and in data set [5] was Active. Besides, the Activity entry in data set [2] is listed as “Non-Toxic”. Besides, the inhibition result in data set [3], in data set [4] and in data set [6] was “Active” each time.
On to `CC1=CC(=O)c2ccccc2C1=O`, for which the inhibition result in data set [3], in data set [4] and in data set [6] was “Active” each time. The outcome in data set [7] and in data set [8] was Active.
